In ChEMBL document CHEMBL5244281, “Tackling multidrug-resistant Staphylococcus aureus by natural products and their analogues acting as NorA efflux pump inhibitors” (Bioorg Med Chem, 2023):
≈ marks a conversion by molar mass, not a printed value.

Legend:
[1] = system: Staphylococcus aureus; assay: Antibacterial activity against norfloxacin resistant Staphylococcus aureus 1199B overexpressing NorA assessed as bacterial growth inhibition incubated for 24 hrs by resazurin based microdilution assay; assay type: functional
[2] = system: Staphylococcus aureus; assay: Antibacterial activity against Staphylococcus aureus ATCC 25923 assessed as bacterial growth inhibition incubated for 24 hrs by resazurin based microdilution assay; assay type: functional
[3] = system: Staphylococcus aureus; assay: Antibacterial activity against Staphylococcus aureus 1199 assessed as bacterial growth inhibition incubated for 24 hrs by resazurin based microdilution assay; assay type: functional
[4] = system: Staphylococcus aureus; assay: Antibacterial activity against Staphylococcus aureus SA10 assessed as bacterial growth inhibition incubated for 24 hrs by resazurin based microdilution assay; assay type: functional
[5] = system: Escherichia coli; assay: Antibacterial activity against Escherichia coli ATCC […] assessed as bacterial growth inhibition incubated for 24 hrs by resazurin based microdilution assay; assay type: functional
[6] = system: Candida albicans; assay: Antifungal activity against Candida albicans NEWP031 assessed as bacterial growth inhibition incubated for 24 hrs by resazurin based microdilution assay; assay type: functional
[7] = target: T1, Quinolone resistance protein NorA (Staphylococcus aureus) (UniProt P0A0J7); assay: Potentiation of EtBr-induced inhibition of NorA efflux in Staphylococcus aureus 1199B overexpressing NorA assessed as reduction in EtBr MIC at 256 ug/ml incubated for 24 hrs by resazurin based assay (Rvb= 32 ug/ml); conditions: dose 256.0 µg/ml
T1 sequence (whole entry): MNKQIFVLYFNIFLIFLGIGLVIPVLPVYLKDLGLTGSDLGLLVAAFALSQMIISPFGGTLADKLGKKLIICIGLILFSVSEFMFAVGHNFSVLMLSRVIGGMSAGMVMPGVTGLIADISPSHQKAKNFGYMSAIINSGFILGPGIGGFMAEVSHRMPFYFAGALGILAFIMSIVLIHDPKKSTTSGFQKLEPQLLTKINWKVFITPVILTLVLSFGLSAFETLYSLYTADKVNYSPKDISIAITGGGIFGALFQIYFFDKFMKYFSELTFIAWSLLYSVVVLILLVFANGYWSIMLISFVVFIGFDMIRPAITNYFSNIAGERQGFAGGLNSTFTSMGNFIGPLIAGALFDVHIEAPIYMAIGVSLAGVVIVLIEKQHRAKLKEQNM

[8] = target: T1, Quinolone resistance protein NorA (Staphylococcus aureus); assay: Potentiation of norfloxacin-induced inhibition of NorA efflux in Staphylococcus aureus 1199B overexpressing NorA assessed as reduction in norfloxacin MIC at 1/8 times of MIC incubated for 24 hrs by CLSI based assay (Rvb= 322.54 ug/ml)
[9] = target: Multidrug export protein MepA (Staphylococcus aureus (strain NCTC 8325)) (UniProt Q2G140); assay: Potentiation of EtBr-induced inhibition of MepA efflux in Staphylococcus aureus K2068 overexpressing MepA assessed as reduction in EtBr MIC at 1/8 times of MIC incubated for 24 hrs by CLSI based assay (Rvb= 322.54 ug/ml)
[10] = system: Staphylococcus aureus; assay: Antibacterial activity against methicillin-resistant Staphylococcus aureus clinical isolate assessed as bacterial growth inhibition by broth dilution method; assay type: functional
[11] = target: T1, Quinolone resistance protein NorA (Staphylococcus aureus); assay: Inhibition of NorA efflux pump in methicillin-resistant Staphylococcus aureus clinical isolate assessed as EtBr MIC using EtBr as substrate at 64 ug/ml and measured for 20 mins by spectrofluorimetric analysis (Rvb=[…] ug/ml); conditions: dose 64.0 µg/ml
[12] = system: Staphylococcus aureus; assay: Synergistic antibacterial activity against methicillin-resistant Staphylococcus aureus clinical isolate assessed as fractional inhibitory concentration index in presence of ciprofloxacin by checkerboard assay; assay type: functional
[13] = target: T1, Quinolone resistance protein NorA (Staphylococcus aureus); assay: Inhibition of NorA efflux pump in methicillin-resistant Staphylococcus aureus clinical isolate assessed as decrease in ciprofloxacin MIC and measured for 20 mins in presence of ciprofloxacin by spectrofluorimetric analysis (Rvb=128 ug/ml)
[14] = target: T1, Quinolone resistance protein NorA (Staphylococcus aureus); assay: Inhibition of NorA efflux pump in Staphylococcus aureus 1199B overexpressing NorA efflux pump assessed as decrease in ciprofloxacin MIC and […] (Rvb=8 ug/ml)
[15] = system: Mycolicibacterium smegmatis; assay: Antibacterial activity against Mycobacterium smegmatis ATCC 607 assessed as bacterial growth inhibition incubated for 3 days by CLSI protocol based microbroth dilution method; assay type: functional; conditions: ATCC 607, 72 h, time 3 day
[16] = system: Staphylococcus aureus; assay: Antibacterial activity against Staphylococcus aureus NCTC 8325-4 assessed as bacterial growth inhibition incubated for 18 hrs by broth microdilution method; assay type: functional
[17] = system: Staphylococcus aureus; assay: Antibacterial activity against norfloxacin resistant Staphylococcus aureus 1199B harboring NorA efflux pump assessed as bacterial growth inhibition incubated for 24 hrs by CLSI protocol based broth microdilution method; assay type: functional
[18] = target: T1, Quinolone resistance protein NorA (Staphylococcus aureus); assay: Modulation of norfloxacin-induced inhibition of NorA efflux pump in Staphylococcus aureus 1199B overexpressing NorA efflux pump assessed as reduction in norfloxacin MIC at 1/4 times of MIC by resazurin based assay
[19] = system: Staphylococcus aureus; assay: Antibacterial activity against Staphylococcus aureus IS-58 harboring TetK efflux pump protein assessed as bacterial growth inhibition incubated for 24 hrs by broth microdilution method; assay type: functional
[20] = system: Staphylococcus aureus; assay: Antibacterial activity against norfloxacin resistant Staphylococcus aureus 1199B harboring NorA efflux pump assessed as bacterial growth inhibition incubated for 24 hrs by broth microdilution method; assay type: functional
[21] = system: Staphylococcus aureus; assay: Potentiation of tetracycline-induced inhibition of TetK efflux pump in Staphylococcus aureus IS-58 overexpressing TetK efflux pump assessed as reduction in tetracycline MIC at 1/8 times of MIC incubated for 24 hrs by resazurin based assay (Rvb=192 ug/ml)
[22] = target: T1, Quinolone resistance protein NorA (Staphylococcus aureus); conditions: 1199B
[23] = system: Staphylococcus aureus; assay: Antibacterial activity against Staphylococcus aureus 1199B overexpressing NorA assessed as bacterial growth inhibition incubated for 18 hrs by MTT assay; assay type: functional
[24] = system: Staphylococcus aureus; assay: Antibacterial activity against tetracycline-resistant Staphylococcus aureus XU212 assessed as bacterial growth inhibition incubated for 18 hrs by MTT assay; assay type: functional
[25] = system: Staphylococcus aureus; assay: Antibacterial activity against Staphylococcus aureus ATCC25923 assessed as bacterial growth inhibition incubated for 18 hrs by MTT assay; assay type: functional
[26] = system: Staphylococcus aureus; assay: Antibacterial activity against Staphylococcus aureus RN4220 assessed as bacterial growth inhibition incubated for 18 hrs by MTT assay; assay type: functional
[27] = system: Staphylococcus aureus; assay: Antibacterial activity against Staphylococcus aureus EMRSA-15 assessed as bacterial growth inhibition incubated for 18 hrs by MTT assay; assay type: functional
[28] = system: Staphylococcus aureus; assay: Antibacterial activity against Staphylococcus aureus EMRSA-16 assessed as bacterial growth inhibition incubated for 18 hrs by MTT assay; assay type: functional
[29] = system: Staphylococcus aureus; assay: Synergistic antibacterial activity against Staphylococcus aureus 1199B overexpressing NorA assessed as fractional Inhibitory concentration index at 64 ug/ml in presence of norfloxacin by broth dilution method; assay type: functional; conditions: dose 64 µg/ml
[30] = system: Staphylococcus aureus; assay: Synergistic antibacterial activity against Staphylococcus aureus RN4220 assessed as fractional Inhibitory concentration index at 64 ug/ml in presence of norfloxacin by broth dilution method; assay type: functional; conditions: dose 64 µg/ml
[31] = system: Staphylococcus aureus; assay: Synergistic antibacterial activity against Staphylococcus aureus EMRSA-15 assessed as fractional Inhibitory concentration index at 64 ug/ml in presence of norfloxacin by broth dilution method; assay type: functional; conditions: dose 64 µg/ml
[32] = target: T1, Quinolone resistance protein NorA (Staphylococcus aureus); conditions: 1199B, dose 64.0 µg/ml
[33] = target: T1, Quinolone resistance protein NorA (Staphylococcus aureus); assay: Potentiation of ciprofloxacin-induced inhibition of NorA efflux pump in Staphylococcus aureus 1199B overexpressing NorA efflux pump assessed as ciprofloxacin MIC at 100 ug/ml for 18 to 20 hrs by checkerboard method (Rvb=4 ug/ml); conditions: dose 100.0 µg/ml, time 18-20 hrs
[34] = target: T1, Quinolone resistance protein NorA (Staphylococcus aureus); assay: Potentiation of ciprofloxacin-induced inhibition of NorA efflux pump in Staphylococcus aureus 1199 assessed as ciprofloxacin MIC at 100 ug/ml for 18 to 20 hrs by checkerboard method (Rvb=0.25 ug/ml); conditions: dose 100.0 µg/ml, time 18-20 hrs
[35] = target: T1, Quinolone resistance protein NorA (Staphylococcus aureus); assay: Inhibition of NorA efflux pump in Staphylococcus aureus 1199B overexpressing NorA efflux pump assessed as minimum effective concentration for 18 to 20 hrs; conditions: time 18-20 hrs

Molecule `C=CCc1ccc(OC)cc1` [ESTRAGOLE] has an MIC [1] of no less than 1020 µg/mL, an MIC [2] of no less than 1020 µg/mL and an MIC [3] of no less than 1020 µg/mL. It also gave an MIC [4] of no less than 1020 µg/mL, an MIC [5] of 2050 µg/mL (≈ 13800 µM) and an MIC [6] of 2050 µg/mL (≈ 13800 µM). It also gave an MIC [7] of 16 µg/mL, an MIC [8] of 256 µg/mL and an MIC [9] of 256 µg/mL.

`COC(=O)/C=C/c1ccc(OCC(=O)Nc2ccc(C)cc2)c(OC)c1` was tested, and the MIC [10] was greater than 125 µg/mL, the MIC [11] was 4 µg/mL and the “fractional inhibitory concentration index (FICI)” value [12] was 0.75. The MIC [13] was 64 µg/mL and the MIC [14] was 2 µg/mL.

For `COc1c(O)c(OC)c2oc(-c3ccc(O)cc3)c(OC)c(=O)c2c1O`, the MIC [15] was 75 µg/mL (≈ 208 µM) and the MIC [16] was greater than 800 µg/mL.

`O=c1c(O)c(-c2cc(O)c(O)c(O)c2)oc2cc(O)cc(O)c12` [MYRICETIN] showed an MIC [17] of 256 µg/mL (≈ 804 µM) and an MIC [18] of 256 µg/mL.

For `CC1=CC[C@@H]([C@@](C)(O)CCCC(C)C)CC1`, the MIC [19] was no less than 1020 µg/mL, the MIC [20] was no less than 1020 µg/mL and the MIC [21] was 128 µg/mL. The MIC [22] was 32 µg/mL (≈ 143 µM).

`COc1ccc(-c2cc(=O)c3c(O)cc(O)cc3o2)cc1O` [DIOSMETIN] showed an MIC [23] of 32 µg/mL (≈ 107 µM), an MIC [24] of 32 µg/mL (≈ 107 µM) and an MIC [25] of 32 µg/mL (≈ 107 µM). The MIC [26] was 32 µg/mL (≈ 107 µM), the MIC [27] was 32 µg/mL (≈ 107 µM) and the MIC [28] was 8 µg/mL (≈ 26.6 µM). For the same molecule, the “fractional inhibitory concentration index (FICI)” value [29] was 0.38, the “fractional inhibitory concentration index (FICI)” value [30] was 0.38 and the “fractional inhibitory concentration index (FICI)” value [31] was 0.09. The MIC [32] was 16 µg/mL (≈ 53.3 µM).

`CC(C)/C=C/CCCCC(=O)NCc1ccc(O)c(OCc2nnc(Nc3cccc(Br)c3)o2)c1` gave an MIC [33] of 0.5 µg/mL, an MIC [34] of 0.12 µg/mL and an MEC [35] of 12.5 µg/mL.
